Experimental data as given in ChEMBL document CHEMBL3885881, “DrugMatrix”.

Organism: Rattus norvegicus
Test: DrugMatrix - Regimen: Daily Repeat
Assay type: toxicity, organism-based, Sprague-Dawley
Parameters: regimen Daily Repeat, gender Male, age 6-8 weeks
Settings: in vivo, po, 80 mg/kg, route oral GAVAGE, dose level High, vehicle .5 % CMC; for ABSOLUTE BASOPHIL / ABSOLUTE EOSINOPHIL / ABSOLUTE LYMPHOCYTE / ABSOLUTE MONOCYTE / ABSOLUTE SEGMENTED NEUTROPHIL / BASOPHIL / EOSINOPHIL / ERYTHROCYTE COUNT / HEMATOCRIT / HEMOGLOBIN / LEUKOCYTE COUNT / LYMPHOCYTE / MEAN CORPUSCULAR HEMOGLOBIN / MEAN CORPUSCULAR HEMOGLOBIN CONCENTRATION / MEAN CORPUSCULAR VOLUME / MONOCYTE / NEUTROPHIL / PLATELET COUNT: tissue Blood; for ALANINE AMINOTRANSFERASE / ALBUMIN / ALKALINE PHOSPHATASE / ASPARTATE AMINOTRANSFERASE / BLOOD UREA NITROGEN / CHLORIDE / CHOLESTEROL / CREATINE PHOSPHOKINASE / CREATININE / GLUCOSE / LACTATE DEHYDROGENASE / LIPASE / PHOSPHORUS / POTASSIUM / SODIUM / TOTAL BILIRUBIN / TOTAL PROTEIN / URIC ACID: tissue Plasma

SMILES: O=c1cc(-c2ccccc2)oc2c1ccc1ccccc12 [ALPHA-NAPHTHOFLAVONE]
- ABSOLUTE BASOPHIL (120 h, time 5 day): 170 cells/µL
- ABSOLUTE EOSINOPHIL (120 h, time 5 day): 42.5 cells/µL
- ABSOLUTE LYMPHOCYTE (120 h, time 5 day): 11500 cells/µL
- ABSOLUTE MONOCYTE (120 h, time 5 day): 230 cells/µL
- ABSOLUTE SEGMENTED NEUTROPHIL (120 h, time 5 day): 1790 cells/µL
- BASOPHIL (120 h, time 5 day): 1.35%
- EOSINOPHIL (120 h, time 5 day): 0.35%
- ERYTHROCYTE COUNT (120 h, time 5 day): 7.43 x10E6/uL
- HEMATOCRIT (120 h, time 5 day): 46.52%
- HEMOGLOBIN (120 h, time 5 day): 15.82 G/DL
- LEUKOCYTE COUNT (120 h, time 5 day): 13.81 x10E3/uL
- LYMPHOCYTE (120 h, time 5 day): 82.92%
- MEAN CORPUSCULAR HEMOGLOBIN (120 h, time 5 day): 21.35 pg
- MEAN CORPUSCULAR HEMOGLOBIN CONCENTRATION (120 h, time 5 day): 34.08 G/DL
- MEAN CORPUSCULAR VOLUME (120 h, time 5 day): 62.67 fL
- MONOCYTE (120 h, time 5 day): 1.57%
- NEUTROPHIL (120 h, time 5 day): 13.3%
- PLATELET COUNT (120 h, time 5 day): 1518.75 x10E3/uL
- ALANINE AMINOTRANSFERASE (120 h, time 5 day): 31.25 u/L
- ALBUMIN (120 h, time 5 day): 3.65 G/DL
- ALKALINE PHOSPHATASE (120 h, time 5 day): 212.25 u/L
- ASPARTATE AMINOTRANSFERASE (120 h, time 5 day): 78.25 u/L
- BLOOD UREA NITROGEN (120 h, time 5 day): 9.25 mg/dL
- CHLORIDE (120 h, time 5 day): 108 MEQ/L
- CHOLESTEROL (120 h, time 5 day): 61 mg/dL
- CREATINE PHOSPHOKINASE (120 h, time 5 day): 190.25 u/L
- CREATININE (120 h, time 5 day): 0.53 mg/dL
- GLUCOSE (120 h, time 5 day): 111 mg/dL
- LACTATE DEHYDROGENASE (120 h, time 5 day): 112.75 u/L
- LIPASE (120 h, time 5 day): 16.75 u/L
- PHOSPHORUS (120 h, time 5 day): 12.3 mg/dL
- POTASSIUM (120 h, time 5 day): 6.75 MEQ/L
- SODIUM (120 h, time 5 day): 151.5 MEQ/L
- TOTAL BILIRUBIN (120 h, time 5 day): 0.23 mg/dL
- TOTAL PROTEIN (120 h, time 5 day): 6.07 G/DL
- URIC ACID (120 h, time 5 day): 0.72 mg/dL
- ABSOLUTE BASOPHIL (2184 h, time 91 day): 340 cells/µL
- ABSOLUTE EOSINOPHIL (2184 h, time 91 day): 100 cells/µL
- ABSOLUTE LYMPHOCYTE (2184 h, time 91 day): 10400 cells/µL
- ABSOLUTE MONOCYTE (2184 h, time 91 day): 180 cells/µL
- ABSOLUTE SEGMENTED NEUTROPHIL (2184 h, time 91 day): 1510 cells/µL
- BASOPHIL (2184 h, time 91 day): 2.59%
- EOSINOPHIL (2184 h, time 91 day): 0.83%
- ERYTHROCYTE COUNT (2184 h, time 91 day): 9.33 x10E6/uL
- HEMATOCRIT (2184 h, time 91 day): 49.58%
- HEMOGLOBIN (2184 h, time 91 day): 16.44 G/DL
- LEUKOCYTE COUNT (2184 h, time 91 day): 12.6 x10E3/uL
- LYMPHOCYTE (2184 h, time 91 day): 82.74%
- MEAN CORPUSCULAR HEMOGLOBIN (2184 h, time 91 day): 17.63 pg
- MEAN CORPUSCULAR HEMOGLOBIN CONCENTRATION (2184 h, time 91 day): 33.15 G/DL
- MEAN CORPUSCULAR VOLUME (2184 h, time 91 day): 53.18 fL
- MONOCYTE (2184 h, time 91 day): 1.38%
- NEUTROPHIL (2184 h, time 91 day): 12.04%
- PLATELET COUNT (2184 h, time 91 day): 1261.8 x10E3/uL
- ALANINE AMINOTRANSFERASE (2184 h, time 91 day): 28.3 u/L
- ALBUMIN (2184 h, time 91 day): 3.77 G/DL
- ALKALINE PHOSPHATASE (2184 h, time 91 day): 94.2 u/L
- ASPARTATE AMINOTRANSFERASE (2184 h, time 91 day): 64.7 u/L
- BLOOD UREA NITROGEN (2184 h, time 91 day): 15.9 mg/dL
- CHLORIDE (2184 h, time 91 day): 103.2 MEQ/L
- CHOLESTEROL (2184 h, time 91 day): 70.3 mg/dL
- CREATINE PHOSPHOKINASE (2184 h, time 91 day): 80.9 u/L
- CREATININE (2184 h, time 91 day): 0.54 mg/dL
- GLUCOSE (2184 h, time 91 day): 152 mg/dL
- LACTATE DEHYDROGENASE (2184 h, time 91 day): 46.3 u/L
- LIPASE (2184 h, time 91 day): 18.7 u/L
- PHOSPHORUS (2184 h, time 91 day): 8.35 mg/dL
- POTASSIUM (2184 h, time 91 day): 6.21 MEQ/L
- SODIUM (2184 h, time 91 day): 149.8 MEQ/L
- TOTAL BILIRUBIN (2184 h, time 91 day): 0.21 mg/dL
- TOTAL PROTEIN (2184 h, time 91 day): 7.38 G/DL
- URIC ACID (2184 h, time 91 day): 0.89 mg/dL
- ABSOLUTE BASOPHIL ([…], time 28 day): 200 cells/µL
- ABSOLUTE EOSINOPHIL ([…], time 28 day): 76 cells/µL
- ABSOLUTE LYMPHOCYTE ([…], time 28 day): 13000 cells/µL
- ABSOLUTE MONOCYTE ([…], time 28 day): 200 cells/µL
- ABSOLUTE SEGMENTED NEUTROPHIL ([…], time 28 day): 1710 cells/µL
- BASOPHIL ([…], time 28 day): 1.28%
- EOSINOPHIL ([…], time 28 day): 0.48%
- ERYTHROCYTE COUNT ([…], time 28 day): 8.57 x10E6/uL
- HEMATOCRIT ([…], time 28 day): 47.9%
- HEMOGLOBIN ([…], time 28 day): 15.96 G/DL
- LEUKOCYTE COUNT ([…], time 28 day): 15.29 x10E3/uL
- LYMPHOCYTE ([…], time 28 day): 85.76%
- MEAN CORPUSCULAR HEMOGLOBIN ([…], time 28 day): 18.62 pg
- MEAN CORPUSCULAR HEMOGLOBIN CONCENTRATION ([…], time 28 day): 33.3 G/DL
- MEAN CORPUSCULAR VOLUME ([…], time 28 day): 55.92 fL
- MONOCYTE ([…], time 28 day): 1.36%
- NEUTROPHIL ([…], time 28 day): 10.8%
- PLATELET COUNT ([…], time 28 day): 1456 x10E3/uL
- ALANINE AMINOTRANSFERASE ([…], time 28 day): 26.4 u/L
- ALBUMIN ([…], time 28 day): 3.66 G/DL
- ALKALINE PHOSPHATASE ([…], time 28 day): 157.4 u/L
- ASPARTATE AMINOTRANSFERASE ([…], time 28 day): 65.6 u/L
- BLOOD UREA NITROGEN ([…], time 28 day): 13.6 mg/dL
- CHLORIDE ([…], time 28 day): 104 MEQ/L
- CHOLESTEROL ([…], time 28 day): 49.8 mg/dL
- CREATINE PHOSPHOKINASE ([…], time 28 day): 102 u/L
- CREATININE ([…], time 28 day): 0.46 mg/dL
- GLUCOSE ([…], time 28 day): 153.8 mg/dL
- LACTATE DEHYDROGENASE ([…], time 28 day): 60 u/L
- LIPASE ([…], time 28 day): 19 u/L
- PHOSPHORUS ([…], time 28 day): 9.14 mg/dL
- POTASSIUM ([…], time 28 day): 5.7 MEQ/L
- SODIUM ([…], time 28 day): 151 MEQ/L
- TOTAL BILIRUBIN ([…], time 28 day): 0.22 mg/dL
- TOTAL PROTEIN ([…], time 28 day): 6.76 G/DL
- URIC ACID ([…], time 28 day): 0.26 mg/dL
